These results are taken from PMC12631574, “Structure–activity relationships of hydrophobic small molecule irreversible inhibitors of tissue transglutaminase” (RSC Medicinal Chemistry, 2025).

Each structure is given as a SMILES string.

Usually kinact stands for the maximal first-order rate at which the target is inactivated.

The target of this test is T1, tissue transglutaminase (TG2), C-terminal His-tag TG2 (Homo sapiens, UniProt P21980).
T1 construct: host or cells: Novagen Rosetta 2 (DE3) E. coli
T1 sequence (P21980 1-687): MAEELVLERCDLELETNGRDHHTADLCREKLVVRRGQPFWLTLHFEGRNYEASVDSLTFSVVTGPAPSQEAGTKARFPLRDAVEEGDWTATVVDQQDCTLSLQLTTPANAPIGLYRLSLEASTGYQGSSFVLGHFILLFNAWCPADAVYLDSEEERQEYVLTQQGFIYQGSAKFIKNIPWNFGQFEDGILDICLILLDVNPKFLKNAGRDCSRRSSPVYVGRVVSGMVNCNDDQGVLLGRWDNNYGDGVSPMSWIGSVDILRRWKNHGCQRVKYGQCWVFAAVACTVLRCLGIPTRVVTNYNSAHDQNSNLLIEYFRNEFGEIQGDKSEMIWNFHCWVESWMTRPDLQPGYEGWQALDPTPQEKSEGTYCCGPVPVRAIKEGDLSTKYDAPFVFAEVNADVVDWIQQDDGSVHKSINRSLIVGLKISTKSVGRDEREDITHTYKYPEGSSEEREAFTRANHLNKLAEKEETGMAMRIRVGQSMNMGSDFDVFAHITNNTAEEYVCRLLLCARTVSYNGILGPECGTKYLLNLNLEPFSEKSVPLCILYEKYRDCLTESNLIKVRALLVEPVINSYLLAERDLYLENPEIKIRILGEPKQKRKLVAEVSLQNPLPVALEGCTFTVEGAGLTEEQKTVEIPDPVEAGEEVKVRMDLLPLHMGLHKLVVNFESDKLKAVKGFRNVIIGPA
Kind of test: continuous AL5 hydrolysis assay of irreversible TG2 inhibition (kobs vs [I]/α). Type of test: biochemical.

The mark [1] stands for this setting: irreversible inhibition, AL5 100 μM, pH 6.9, 25 °C, triplicate.
The mark [2] stands for this setting: supplement, kinetics data and fitting.

Turning to `C=CC(=O)NCC(=O)N1CCN(C(=O)C2CC2)CC1` [Compound 6a, N-2-[4-[(Cyclopropanecarbonyl)-1-piperazinyl]-2-oxoethyl]propenamide], the kinact is 0.00593 s⁻¹. This compound also came in with a KI (inactivation) under setting [1] of 23.5 ± 6.5 µM. Under setting [2], the KI (inactivation) was 23.5 ± 6.5 µM and the kinact/KI is listed as 15.2 ± 4.6 × 103 M-1min-1.
With `C=CC(=O)NCC(=O)N1CCN(C(=O)C2CCC2)CC1` [Compound 6b, N-2-[4-[(Cyclobutanecarbonyl)-1-piperazinyl]-2-oxoethyl]propenamide], the kinact was 0.00842 s⁻¹. The same compound displayed a KI (inactivation) under setting [1] of 20.2 ± 3.5 µM. Besides, under setting [2], the KI (inactivation) is 20.2 ± 3.5 µM and the kinact/KI is on record as 25.0 ± 4.7 × 103 M-1min-1.
`C=CC(=O)NCC(=O)N1CCN(C(=O)C2CCCC2)CC1` [Compound 6c, N-2-[4-[(Cyclopentanecarbonyl)-1-piperazinyl]-2-oxoethyl]propenamide]: the kinact was 0.00868 s⁻¹. Under setting [1], this compound registered a KI (inactivation) of 13 ± 1.6 µM. Moreover, under setting [2], the KI (inactivation) stood at 13 ± 1.6 µM and the kinact/KI was 40.0 ± 5.3 × 103 M-1min-1.
In the case of `C=CC(=O)NCC(=O)N1CCN(C(=O)C2CCCCC2)CC1` [Compound 6d, N-2-[4-[(Cyclohexanecarbonyl)-1-piperazinyl]-2-oxoethyl]propenamide], the kinact was 0.0177 s⁻¹. Also, the KI (inactivation) under setting [1] stood at 7.1 ± 1.3 µM. Besides, under setting [2], the KI (inactivation) amounted to 7.14 ± 1.34 µM and the kinact/KI is 149 ± 31 × 103 M-1min-1.
On the same counts, the results for `C=CC(=O)NCC(=O)N1CCN(C(=O)C2CCCCCC2)CC1` [Compound 6e, N-2-[4-[(Cycloheptanecarbonyl)-1-piperazinyl]-2-oxoethyl]propenamide] are 0.0099 s⁻¹, 21.5 ± 11 µM, 21.5 ± 11 µM and 27.6 ± 16.1 × 103 M-1min-1.
`C=CC(=O)NCC(=O)N1CCN(C(=O)c2ccccc2)CC1` [Compound 6f, N-2-[4-[(Benzoyl)-1-piperazinyl]-2-oxoethyl]propenamide]: the kinact was 0.00827 s⁻¹. Under setting [1], this compound gave a KI (inactivation) of 8.1 ± 2.5 µM. Under setting [2], the KI (inactivation) was found to be 8.12 ± 2.47 µM and the kinact/KI is recorded as 61.1 ± 20.0 × 103 M-1min-1.
On the same counts, the results for `C=CC(=O)NCC(=O)N1CCN(C(=O)c2ccccc2-c2ccccc2)CC1` [Compound 7a, N-2-[4-[((2-Biphenyl)carbonyl)-1-piperazinyl]-2-oxoethyl]propenamide] are 0.00958 s⁻¹, 3.2 ± 1 µM, 3.23 ± 1.14 µM and 178.0 ± 68.6 × 103 M-1min-1.
As for `C=CC(=O)NCC(=O)N1CCN(C(=O)c2cccc(-c3ccccc3)c2)CC1` [Compound 7b, N-2-[4-[((3-Biphenyl)carbonyl)-1-piperazinyl]-2-oxoethyl]propenamide], the maximal inactivation rate constant (kinact) was 0.0118 s⁻¹. Under setting [1], the KI (inactivation) stood at 5.3 ± 1.4 µM. Besides, under setting [2], the KI (inactivation) turned out to be 5.29 ± 1.39 µM and the kinact/KI is listed as 133.9 ± 38.4 × 103 M-1min-1.
On the same counts, the results for `C=CC(=O)NCC(=O)N1CCN(C(=O)c2ccc(-c3ccccc3)cc2)CC1` [Compound 7c, N-2-[4-[((4-Biphenyl)carbonyl)-1-piperazinyl]-2-oxoethyl]propenamide] are 0.0118 s⁻¹, 41.1 ± 32.2 µM, 41.1 ± 32.3 µM and 17.2 ± 15.5 × 103 M-1min-1.
The like results for `C=CC(=O)NCC(=O)N1CCN(C(=O)c2ccccc2-c2ccccc2C)CC1` [Compound 21a, N-2-[4-[((2′-Methyl-2-biphenyl)carbonyl)-1-piperazinyl]-2-oxoethyl]propenamide] were, in that order, 0.00955 s⁻¹, 4.8 ± 1 µM, 4.85 ± 1.02 µM and 118 ± 27 × 103 M-1min-1.
The like results for `C=CC(=O)NCC(=O)N1CCN(C(=O)c2ccccc2-c2cccc(C)c2)CC1` [Compound 21b, N-2-[4-[((3′-Methyl-2-biphenyl)carbonyl)-1-piperazinyl]-2-oxoethyl]propenamide] were, in that order, 0.00902 s⁻¹, 2.6 ± 0.7 µM, 2.64 ± 0.72 µM and 205 ± 60 × 103 M-1min-1.
Regarding `C=CC(=O)NCC(=O)N1CCN(C(=O)c2ccccc2-c2ccc(C)cc2)CC1` [Compound 21c, N-2-[4-[((4′-Methyl-2-biphenyl)carbonyl)-1-piperazinyl]-2-oxoethyl]propenamide], the kinact is 0.00807 s⁻¹. Further, the KI (inactivation) under setting [1] turned out to be 8.3 ± 2.1 µM. Under setting [2], the KI (inactivation) came out at 8.28 ± 2.08 µM and the kinact/KI is given as 58.5 ± 16.2 × 103 M-1min-1.
`C=CC(=O)NCC(=O)N1CCN(C(=O)c2cccc(-c3ccccc3C)c2)CC1` [Compound 21d, N-2-[4-[((2′-Methyl-3-biphenyl)carbonyl)-1-piperazinyl]-2-oxoethyl]propenamide]: the kinact was 0.012 s⁻¹. The KI (inactivation) under setting [1] stood at 1.1 ± 0.1 µM. In addition, under setting [2], the KI (inactivation) turned out to be 1.13 ± 0.099 µM and the kinact/KI is recorded as 636 ± 58 × 103 M-1min-1.
The like results for `C=CC(=O)NCC(=O)N1CCN(C(=O)c2cccc(-c3cccc(C)c3)c2)CC1` [Compound 21e, N-2-[4-[((3′-Methyl-3-biphenyl)carbonyl)-1-piperazinyl]-2-oxoethyl]propenamide] were, in that order, 0.0104 s⁻¹, 4.4 ± 2.8 µM, 4.42 ± 2.83 µM and 141 ± 98 × 103 M-1min-1.
On to `C=CC(=O)NCC(=O)N1CCN(C(=O)c2cccc(-c3ccc(C)cc3)c2)CC1` [Compound 21f, N-2-[4-[((4′-Methyl-3-biphenyl)carbonyl)-1-piperazinyl]-2-oxoethyl]propenamide], for which the kinact is 0.0092 s⁻¹. Further, the KI (inactivation) under setting [1] came out at 2.3 ± 0.6 µM. Further, under setting [2], the KI (inactivation) was determined as 2.29 ± 0.66 µM and the kinact/KI is 241 ± 74 × 103 M-1min-1.
The like results for `C=CC(=O)NCC(=O)N1CCN(C(=O)c2ccc(-c3ccccc3C)cc2)CC1` [Compound 21g, N-2-[4-[((2′-Methyl-4-biphenyl)carbonyl)-1-piperazinyl]-2-oxoethyl]propenamide] were, in that order, 0.0217 s⁻¹, 54.1 ± 14.6 µM, 54.1 ± 14.6 µM and 24.1 ± 7.3 × 103 M-1min-1.
The like results for `C=CC(=O)NCC(=O)N1CCN(C(=O)c2ccc(-c3cccc(C)c3)cc2)CC1` [Compound 21h, N-2-[4-[((3′-Methyl-4-biphenyl)carbonyl)-1-piperazinyl]-2-oxoethyl]propenamide] were, in that order, 0.0148 s⁻¹, 38.9 ± 17.7 µM, 38.9 ± 17.7 µM and 22.8 ± 11.7 × 103 M-1min-1.
On the same counts, the results for `C=CC(=O)NCC(=O)N1CCN(C(=O)c2ccccc2Cc2ccccc2)CC1` [Compound 22a, N-2-[4-[((2-Benzylphenyl)carbonyl)-1-piperazinyl]-2-oxoethyl]propenamide] are 0.0146 s⁻¹, 14.2 ± 3.3 µM, 14.2 ± 3.3 µM and 61.3 ± 15.9 × 103 M-1min-1.
Turning to `C=CC(=O)NCC(=O)N1CCN(C(=O)c2ccccc2Oc2ccccc2)CC1` [Compound 22b, N-2-[4-[((2-Phenoxyphenyl)carbonyl)-1-piperazinyl]-2-oxoethyl]propenamide], the kinact was 0.0143 s⁻¹. Further, the KI (inactivation) under setting [1] amounted to 9.1 ± 0.8 µM. Under setting [2], the KI (inactivation) was determined as 9.06 ± 0.8 µM and the kinact/KI is 94.8 ± 9.0 × 103 M-1min-1.
For the compound `C=CC(=O)NCC(=O)N1CCN(C(=O)c2ccccc2Nc2ccccc2)CC1` [Compound 22c, N-2-[4-[(((2-Phenylamino)phenyl)carbonyl)-1-piperazinyl]-2-oxoethyl]propenamide], the kinact is 0.0119 s⁻¹. Besides, the KI (inactivation) under setting [1] turned out to be 6.4 ± 0.7 µM. Moreover, under setting [2], the KI (inactivation) was found to be 6.38 ± 0.7 µM and the kinact/KI is reported as 112 ± 14 × 103 M-1min-1.
The like results for `C=CC(=O)NCC(=O)N1CCN(C(=O)c2cccc(Cc3ccccc3)c2)CC1` [Compound 22d, N-2-[4-[((3-benzylphenyl)carbonyl)-1-piperazinyl]-2-oxoethyl]propenamide] were, in that order, 0.0168 s⁻¹, 8.8 ± 2.7 µM, 8.84 ± 2.72 µM and 114 ± 38 × 103 M-1min-1.
The like results for `C=CC(=O)NCC(=O)N1CCN(C(=O)c2cccc(Oc3ccccc3)c2)CC1` [Compound 22e, N-2-[4-[((3-Phenoxyphenyl)carbonyl)-1-piperazinyl]-2-oxoethyl]propenamide] were, in that order, 0.0223 s⁻¹, 11.9 ± 4 µM, 11.9 ± 4 µM and 112 ± 41 × 103 M-1min-1.
In the case of `C=CC(=O)NCC(=O)N1CCN(C(=O)c2cccc(Nc3ccccc3)c2)CC1` [Compound 22f, N-2-[4-[(((3-Phenylamino)phenyl)carbonyl)-1-piperazinyl]-2-oxoethyl]propenamide], the kinact is 0.0165 s⁻¹. This compound registered a KI (inactivation) under setting [1] of 31.7 ± 8.6 µM. Moreover, under setting [2], the KI (inactivation) was found to be 31.7 ± 8.6 µM and the kinact/KI is listed as 31.2 ± 10.0 × 103 M-1min-1.
